The molecules below were run on Plutella xylostella (assay: Plutella xylostella, leaf dip method). Details: foliar, cabbage leaf dip, second instar larvae, 72 h after release, dead + moribund vs untreated control, read-out: percent mortality.
Format: in vivo
Experimental: The leaf dip method was used for testing, wherein the required quantity of the compound was weighed and dissolved in a tube containing solvent solution. The tube was put on a vortex at 2000 rpm for 90 min for proper mixing, then diluted with 0.01% Triton-X solution to get the desired test concentration. Cabbage leaves were dipped in the compound solution for 10 seconds, shade dried for 20 min and then transferred into the cells of bioassay trays. A single second instar larva was released into each cell and the tray was covered with a lid. The bio-assay trays were then kept under laboratory conditions at a temperature of 25° C. and a relative humidity of 70%. Observations on dead, moribund and alive larvae were recorded 72 h after the release. Percent mortality was calculated by combining dead and moribund larvae and comparing the result to the one of the untreated control.

**Q.** `CC#Cc1ccc(S(=O)(=O)CC)c(-c2ccn3nc(C(F)(F)F)cc3n2)n1` [Compound 173, 5-(3-(ethylsulfonyl)-6-(prop-1-yn-1-yl)pyridin-2-yl)-2-(trifluoromethyl)pyrazolo[1,5-a]pyrimidine] was tested. Which mortality at 300 ppm did it give?
**A.** ≥ 70%

**Q.** With `CCS(=O)(=O)c1cc(-n2cc(Cl)cn2)cnc1-c1ccn2nc(C(F)(F)F)cc2n1` [Compound 89] as the molecule, how does the mortality at 300 ppm read?
**A.** ≥ 70%

**Q.** `CCS(=O)(=O)c1ccc(CC#N)nc1-c1ccn2nc(C(F)(F)F)cc2n1` [Compound 217, 2-(5-(ethylsulfonyl)-6-(2-(trifluoromethyl)pyrazolo[1,5-a]pyrimidin-5-yl)pyridin-2-yl)acetonitrile] was tested. Which mortality at 300 ppm did it give?
**A.** ≥ 70%

**Q.** For `CCS(=O)(=O)c1ccc(OCC(F)(F)F)nc1-c1ccn2nc(C(F)(F)F)cc2n1` [Compound 239, 5-(3-(ethylsulfonyl)-6-(2,2,2-trifluoroethoxy)pyridin-2-yl)-2-(trifluoromethyl)pyrazolo[1,5-a]pyrimidine], which mortality at 300 ppm is on record?
**A.** ≥ 70%

**Q.** With `CCS(=O)(=O)c1cc(-n2cnc(C)n2)cnc1-c1ccn2nc(C(F)(F)F)cc2n1` [Compound 69, 5-(3-(ethylsulfonyl)-5-(3-methyl-1H-1,2,4-triazol-1-yl)pyridin-2-yl)-2-(trifluoromethyl)pyrazolo[1,5-a]pyrimidine] as the molecule, how does the mortality at 300 ppm read?
**A.** ≥ 70%

**Q.** `CCS(=O)(=O)c1cc(NC2CC2)cnc1-c1ccn2nc(C(F)(F)F)cc2n1` [Compound 170, N-cyclopropyl-5-(ethylsulfonyl)-6-(2-(trifluoromethyl)pyrazolo[1,5-a]pyrimidin-5-yl)pyridin-3-amine] was tested. Which mortality at 300 ppm did it give?
**A.** ≥ 70%

**Q.** For `CCS(=O)(=O)c1ccc(/C=C/C2CC2)nc1-c1ccn2nc(C(F)(F)F)cc2n1` [Compound 216, (E)-5-(6-(2-cyclopropylvinyl)-3-(ethylsulfonyl)pyridin-2-yl)-2-(trifluoromethyl)pyrazolo[1,5-a]pyrimidine], which mortality at 300 ppm is on record?
**A.** ≥ 70%

**Q.** How did the mortality at 300 ppm turn out when `CCS(=O)(=O)c1ccc(C2CC2)nc1-c1ccn2nc(C(F)(F)F)cc2n1` [Compound 171, 5-(6-cyclopropyl-3-(ethylsulfonyl)pyridin-2-yl)-2-(trifluoromethyl)pyrazolo[1,5-a]pyrimidine] was run?
**A.** ≥ 70%

**Q.** With `CCS(=O)(=O)c1cc(C=C(C)C)cnc1-c1ccn2nc(C(F)(F)F)cc2n1` [Compound 201, 5-(3-(ethylsulfonyl)-5-(2-methylprop-1-en-1-yl)pyridin-2-yl)-2-(trifluoromethyl)pyrazolo[1,5-a]pyrimidine] as the molecule, how does the mortality at 300 ppm read?
**A.** ≥ 70%

**Q.** `CCS(=O)(=O)c1cc(NC(=O)C2CC2)cnc1-c1ccn2nc(C(F)(F)F)cc2n1` [Compound 233, N-(5-(ethylsulfonyl)-6-(2-(trifluoromethyl)pyrazolo[1,5-a]pyrimidin-5-yl)pyridin-3-yl)cyclopropanecarboxamide] was tested. Which mortality at 300 ppm did it give?
**A.** ≥ 70%

**Q.** Which mortality at 300 ppm does the source give for `CCS(=O)(=O)c1cc(-c2cc(C(F)(F)F)nn2C)cnc1-c1ncc2nc(C(F)(F)F)n(C)c2n1` [Compound 121, 2-(3-(ethylsulfonyl)-5-(1-methyl-3-(trifluoromethyl)-1H-pyrazol-5-yl)pyridin-2-yl)-9-methyl-8-(trifluoromethyl)-9H-purine] here?
**A.** ≥ 70%

**Q.** `CCSc1cc(-c2ccnn2C)cnc1-c1ccn2nc(C(F)(F)F)cc2n1` [Compound 67, 5-(3-(ethylthio)-5-(1-methyl-1H-pyrazol-5-yl)pyridin-2-yl)-2-(trifluoromethyl)pyrazolo[1,5-a]pyrimidine] was tested. Which mortality at 300 ppm did it give?
**A.** ≥ 70%

**Q.** How did the mortality at 300 ppm turn out when `CCS(=O)(=O)c1cc(-c2ccc(Cl)c(F)c2)cnc1-c1ccn2nc(C(F)(F)F)nc2n1` [Compound 162, 5-(5-(4-chloro-3-fluorophenyl)-3-(ethylsulfonyl)pyridin-2-yl)-2-(trifluoromethyl)-[1,2,4]triazolo[1,5-a]pyrimidine] was run?
**A.** ≥ 70%

**Q.** Which mortality at 300 ppm does the source give for `CCS(=O)(=O)c1cc(-c2ccc(F)cc2)cnc1-c1ncc2nc(C(F)(F)F)n(C)c2n1` [Compound 118, 2-(3-(ethylsulfonyl)-5-(4-fluorophenyl)pyridin-2-yl)-9-methyl-8-(trifluoromethyl)-9H-purine] here?
**A.** ≥ 70%

**Q.** `CCS(=O)(=O)c1ccc(OC(C)C)nc1-c1ccn2nc(C(F)(F)F)cc2n1` [Compound 240, 5-(3-(ethylsulfonyl)-6-isopropoxypyridin-2-yl)-2-(trifluoromethyl)pyrazolo[1,5-a]pyrimidine] was tested. Which mortality at 300 ppm did it give?
**A.** ≥ 70%

**Q.** `CCSc1ccc(-n2cncn2)nc1-c1cnc2cc(C(F)(F)F)nn2c1` [Compound 40, 6-(3-(ethylthio)-6-(1H-1,2,4-triazol-1-yl)pyridin-2-yl)-2-(trifluoromethyl)pyrazolo[1,5-a]pyrimidine] was tested. Which mortality at 300 ppm did it give?
**A.** ≥ 70%

**Q.** `CCS(=O)(=O)c1cc(-n2cnc(Br)n2)cnc1-c1ccn2nc(C(F)(F)F)cc2n1` [Compound 177, 5-(5-(3-bromo-1H-1,2,4-triazol-1-yl)-3-(ethylsulfonyl)pyridin-2-yl)-2-(trifluoromethyl)pyrazolo[1,5-a]pyrimidine] was tested. Which mortality at 300 ppm did it give?
**A.** ≥ 70%

**Q.** For `CCS(=O)(=O)c1cc(-c2cccc(OC(F)(F)C(F)F)c2)cnc1-c1ccn2nc(C(F)(F)F)nc2n1` [Compound 144, 5-(3-(ethylsulfonyl)-5-(3-(1,1,2,2-tetrafluoroethoxy)phenyl)pyridin-2-yl)-2-(trifluoromethyl)-[1,2,4]triazolo[1,5-a]pyrimidine], which mortality at 300 ppm is on record?
**A.** ≥ 70%

**Q.** `CCS(=O)(=O)c1ccc(-c2ccc(Cl)cc2)nc1-c1ccn2nc(C(F)(F)F)cc2n1` [Compound 20, 5-(6-(4-chlorophenyl)-3-(ethylsulfonyl)pyridin-2-yl)-2-(trifluoromethyl)pyrazolo[1,5-a]pyrimidine] was tested. Which mortality at 300 ppm did it give?
**A.** ≥ 70%

**Q.** How did the mortality at 300 ppm turn out when `CCS(=O)(=O)c1cc(N(C)C)cnc1-c1ccn2nc(C(F)(F)F)cc2n1` [Compound 230, 5-(ethylsulfonyl)-N,N-dimethyl-6-(2-(trifluoromethyl)pyrazolo[1,5-a]pyrimidin-5-yl)pyridin-3-amine] was run?
**A.** ≥ 70%

**Q.** For `CCS(=O)(=O)c1cc(-n2cncn2)cnc1-c1ccn2nc(C(F)(F)F)nc2n1` [Compound 146, 5-(3-(ethylsulfonyl)-5-(1H-1,2,4-triazol-1-yl)pyridin-2-yl)-2-(trifluoromethyl)-[1,2,4]triazolo[1,5-a]pyrimidine], which mortality at 300 ppm is on record?
**A.** ≥ 70%

**Q.** With `CCS(=O)(=O)c1ccc(O)nc1-c1ccn2nc(C(F)(F)F)cc2n1` [Compound 236, 5-(ethylsulfonyl)-6-(2-(trifluoromethyl)pyrazolo[1,5-a]pyrimidin-5-yl)pyridin-2-ol] as the molecule, how does the mortality at 300 ppm read?
**A.** ≥ 70%

**Q.** `CCS(=O)(=O)c1cc(-c2ccnn2C)cnc1-c1ccn2nc(C(F)(F)F)cc2n1` [Compound 71, 5-(3-(ethylsulfonyl)-5-(1-methyl-1H-pyrazol-5-yl)pyridin-2-yl)-2-(trifluoromethyl)pyrazolo[1,5-a]pyrimidine] was tested. Which mortality at 300 ppm did it give?
**A.** ≥ 70%

**Q.** Which mortality at 300 ppm does the source give for `CCS(=O)(=O)c1ccc(-c2ccccc2)nc1-c1ccn2nc(C(F)(F)F)cc2n1` [Compound 15, 5-(3-(ethylsulfonyl)-6-phenylpyridin-2-yl)-2-(trifluoromethyl)pyrazolo[1,5-a]pyrimidine] here?
**A.** ≥ 70%

**Q.** How did the mortality at 300 ppm turn out when `CCS(=O)(=O)c1cc(-c2cncnc2)cnc1-c1ccn2nc(C(F)(F)F)cc2n1` [Compound 95, 5-(3-(ethylsulfonyl)-5-(pyrimidin-5-yl)pyridin-2-yl)-2-(trifluoromethyl)pyrazolo[1,5-a]pyrimidine] was run?
**A.** ≥ 70%

**Q.** How did the mortality at 300 ppm turn out when `CCS(=O)(=O)c1cc(-c2cncnc2)cnc1-c1ccn2nc(C(F)(F)F)nc2n1` [Compound 135, 5-(3-(ethylsulfonyl)-5-(pyrimidin-5-yl)pyridin-2-yl)-2-(trifluoromethyl)-[1,2,4]triazolo[1,5-a]pyrimidine] was run?
**A.** ≥ 70%

**Q.** How did the mortality at 300 ppm turn out when `CCSc1cc(-n2cncn2)cnc1-c1ccn2nc(C(F)(F)F)cc2n1` [Compound 32, 5-(3-(ethylthio)-5-(1H-1,2,4-triazol-1-yl)pyridin-2-yl)-2-(trifluoromethyl)pyrazolo[1,5-a]pyrimidine] was run?
**A.** ≥ 70%

**Q.** How did the mortality at 300 ppm turn out when `CCS(=O)(=O)c1cc(C)cnc1-c1ccn2nc(C(F)(F)F)cc2n1` [Compound 164, 5-(3-(ethylsulfonyl)-5-methylpyridin-2-yl)-2-(trifluoromethyl)pyrazolo[1,5-a]pyrimidine] was run?
**A.** ≥ 70%

**Q.** Which mortality at 300 ppm does the source give for `CCS(=O)(=O)c1ccc(-n2ncn(-c3ccc(OC(F)(F)F)cc3)c2=O)nc1-c1ccn2nc(C(F)(F)F)cc2n1` [Compound 10, 2-(5-(ethylsulfonyl)-6-(2-(trifluoromethyl)pyrazolo[1,5-a]pyrimidin-5-yl)pyridin-2-yl)-4-(4-(trifluoromethoxy)phenyl)-2,4-dihydro-3H-1,2,4-triazol-3-one] here?
**A.** ≥ 70%

**Q.** With `CCSc1ccc(C)nc1-c1ccn2nc(C(F)(F)F)nc2n1` [Compound 187, 5-(3-(ethylthio)-6-methylpyridin-2-yl)-2-(trifluoromethyl)-[1,2,4]triazolo[1,5-a]pyrimidine] as the molecule, how does the mortality at 300 ppm read?
**A.** ≥ 70%

**Q.** How did the mortality at 300 ppm turn out when `CCS(=O)(=O)c1ccc(N2CCn3c(nnc3C(F)(F)F)C2)nc1-c1ccn2nc(C(F)(F)F)cc2n1` [Compound 6, 7-(5-(ethylsulfonyl)-6-(2-(trifluoromethyl)pyrazolo[1,5-a]pyrimidin-5-yl)pyridin-2-yl)-3-(trifluoromethyl)-5,6,7,8-tetrahydro-[1,2,4]triazolo[4,3-a]pyrazine] was run?
**A.** ≥ 70%

**Q.** For `CCS(=O)(=O)c1ccc(-c2ccc(Cl)cc2)nc1-c1cnc2nc(C(F)(F)F)nn2c1` [Compound 47, 6-(6-(4-chlorophenyl)-3-(ethylsulfonyl)pyridin-2-yl)-2-(trifluoromethyl)-[1,2,4]triazolo[1,5-a]pyrimidine], which mortality at 300 ppm is on record?
**A.** ≥ 70%

**Q.** `CCS(=O)(=O)c1cc(-c2cnn(C)c2)cnc1-c1ccn2nc(C(F)(F)F)cc2n1` [Compound 97, 5-(3-(ethylsulfonyl)-5-(1-methyl-1H-pyrazol-4-yl)pyridin-2-yl)-2-(trifluoromethyl)pyrazolo[1,5-a]pyrimidine] was tested. Which mortality at 300 ppm did it give?
**A.** ≥ 70%
